The values that follow come from US5488051A, “Substituted 5,6-dihydro-5-oxo-1,4-dithiino-(2,3-d)-pyridazine-2,3-dicarbonitriles, compositions containing them and their use as antimicrobials” (The Dow Chemical Company, priority 1994, dated 1996).

One assay relates to Fusarium oxysporum (Fo). Nature of the assay: MIC for Fusarium oxysporum, malt yeast agar. Format: cell-based, Fusarium oxysporum ATCC 48112. Particulars: malt yeast agar; 30° C., 72 hours for fungi; read-out: Minimum Inhibitory Concentration (MIC), Fo. The method in brief:
(§1)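 Agar dilution on malt yeast agar with compound (from 1% acetone/water solution) at final 0, 1.0, 2.5, 5, 10, 25, 50, 100, 250, 500 ppm. Plates inoculated by replicator with saline suspensions (1:9 diluted) of 7-day cultures; incubated at 30 °C, read at 48 h for yeast and 72 h for fungi.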

The subject of assay [1] is Aureobasidium pullulan (Ap). Nature of the assay: MIC for Aureobasidium pullulan, malt yeast agar. Format: cell-based, Aureobasidium pullulan ATCC 16622. Particulars: malt yeast agar; 30° C.; 48 hours for yeast and 72 hours for fungi; read-out: Minimum Inhibitory Concentration (MIC), Ap. The method in brief:
as §1

The test system of assay [2] is Pseudomonas aeruginosa (PRD-10). Nature of the assay: MIC for Pseudomonas aeruginosa PRD-10, nutrient agar. The assay is classed as cell-based, Pseudomonas aeruginosa ATCC 15442. Particulars: 30° C., 48 hours, read-out: Minimum Inhibitory Concentration (MIC), PRD. The essentials: (§2)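 MIC taken as the lowest in-agar concentration without growth, using nutrient agar at pH 6.8 and pH 8.2 with compound at 0, 1.0, 2.5, 5, 10, 25, 50, 100, 250 or 500 ppm. Bacteria grown 24 h at 30° C were applied at 10^8 CFU/mL; plates were incubated 48 h at 30° C.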

The subject of a further assay is Aspergillus niger (An). Nature of the assay: MIC for Aspergillus niger, malt yeast agar. As to conditions: malt yeast agar; 30° C., 72 hours for fungi; read-out: Minimum Inhibitory Concentration (MIC), An. The assay is classed as cell-based, Aspergillus niger ATCC 16404. The essentials: as §1
Another assay concerns marine organism growth. Description: Marine antifouling rating of coated test panels exposed to marine environment. Further details: species or system marine organisms. Particulars: scale 10 (completely free of growth) to 0 (completely covered); for Marine Antifouling Rating, 10 Week Test, Bottom Panel / Marine Antifouling Rating, 10 Week Test, Top Panel: 10 weeks; for Marine Antifouling Rating, 10 Week Test, Top Panel: untreated Control 7. As to the method:
Test panels are prepared from clear, rigid polyvinyl chloride film that is 0.381×10^-3 m thick and has one textured surface. The test panels are 0.1524 m by 0.1524 m squares that have 0.00635 m holes punched at corners on 0.127 m centers. A 0.102 square template, with a 0.067 m diameter hole at the center, is attached to the center of the textured surface of the test panels.
A candidate marine antifoulant compound (1.0 g) is stirred into a resinous latex binder (9.0 g). A portion of the compound/binder mixture (1.5 g) is added to the center of the test panel and uniformly spread over the circular area inside the template.
Water is added dropwise as needed to properly spread the compound/binder mixture. The template prevents the compound/binder mixture from spreading beyond the uncovered area. The test panel is allowed to sit for between ten to thirty minutes until the edge of the spread compound/binder mixture has dried. The template is then removed. The test panel is then allowed to dry for 8 to 12 hours at room temperature.
Two test panels are prepared for each candidate marine antifoulant compound. Two control test panels are also prepared by only treating with the resinous latex binder. One test panel of each candidate marine […] compound is attached over a white background to the topside of an exposure support apparatus. The second test panel is attached over a black background to the underside of the exposure support apparatus. The exposure support apparatus is placed horizontally 0.0254 m under a marine surface with the white background topside facing up. The exposure support apparatus is exposed to the marine environment for both 10 and 20 weeks during which time the control test panels become substantially covered with mature marine organism growth on both the topside and underside exposures.
After being removed from the exposure support apparatus, each test panel is inspected and rated for marine organism growth on both the treated and untreated areas of the test panel. The marine organisms present on the treated and untreated areas are noted. The presence of algae spores and bacterial slime are noted but not included in rating each test panel. The test panels are rated on a scale from 10 (representing completely free of marine organism growth) to 0 (representing completely covered with marine organism growth).
In Table V, the marine antifouling rating values for some of the compounds listed in Table I are set forth, as well as the ratings for control panels (using no marine antifouling compound, and referred to in Table V as "Control") and panels using a standard commercial marine antifouling compound (with copper (I) oxide (Cu2 O) as the active agent and referred to in Table V as "STANDARD II").

The test system of another assay is Salmonella choleraesuis. Nature of the assay: MIC for Salmonella choleraesuis, nutrient agar. Format: cell-based, Salmonella choleraesuis ATCC 10708. As to conditions: Salmonella enterica, 30° C., 48 hours, read-out: Minimum Inhibitory Concentration (MIC), SC. The method in brief:
as §2

Setting [3] is: bottom panel (black background), untreated Control 1.

SMILES strings stand for the structures. Values after ≈ are worked out from the molar mass of the structure shown. Where two headings read alike, the source gives them in different places. Where only a bound is given, the exact number is not on record here.

For `Cc1ccc(-n2ncc3c(c2=O)SC(C#N)=C(C#N)S3)cc1` [B, 5,6-dihydro-6-(4-methylphenyl)-5-oxo-1,4-dithiino-(2,3-d)-pyridazine-2,3-dicarbonitrile], the MIC with Fusarium oxysporum (Fo) was 25 µg/mL (≈ 77.1 µM); in assay [1], less than 10 µg/mL; in assay [2] (pH 6.8, nutrient agar), greater than 500 µg/mL; in assay [2] (pH 8.2, nutrient agar), greater than 500 µg/mL; in the assay on Aspergillus niger (An), 25 µg/mL (≈ 77.1 µM); with Salmonella choleraesuis (pH 6.8, nutrient agar) it was greater than 500 µg/mL. The MIC in the assay with Salmonella choleraesuis (pH 8.2, nutrient agar) is greater than 500 µg/mL. Moreover, in the assay on marine organism growth (setting [3]), the “Marine Antifouling Rating, 10 Week Test, Bottom Panel” value was determined as 4. In addition, the “Marine Antifouling Rating, 10 Week Test, Top Panel” value in the assay on marine organism growth (top panel (white background)) was 10. Also, in the assay on marine organism growth (20 weeks, bottom panel (black background), untreated Control 1), the “Marine Antifouling Rating, 20 Week Test, Bottom Panel” value was 1. The “Marine Antifouling Rating, 20 Week Test, Top Panel” value with marine organism growth (20 weeks, top panel (white background), untreated Control 1) turned out to be 1.

`N#CC1=C(C#N)Sc2c(cnn(-c3ccc(Br)cc3)c2=O)S1` [C, 5,6-dihydro-6-(4-bromophenyl)-5-oxo-1,4-dithiino-(2,3-d)-pyridazine-2,3-dicarbonitrile]: the MIC in the assay with Fusarium oxysporum (Fo) is 10 µg/mL (≈ 25.7 µM); in assay [1], 10 µg/mL (≈ 25.7 µM); in assay [2] (pH 6.8, nutrient agar), greater than 500 µg/mL; in assay [2] (pH 8.2, nutrient agar), greater than 500 µg/mL; with Aspergillus niger (An), 10 µg/mL (≈ 25.7 µM); with Salmonella choleraesuis (pH 6.8, nutrient agar), 100 µg/mL (≈ 257 µM). In addition, in the assay with Salmonella choleraesuis (pH 8.2, nutrient agar), the MIC was greater than 500 µg/mL. For the same molecule, the “Marine Antifouling Rating, 10 Week Test, Bottom Panel” value in the assay with marine organism growth (setting [3]) was 1. In addition, the “Marine Antifouling Rating, 10 Week Test, Top Panel” value in the assay with marine organism growth (top panel (white background)) is 7.
